Bounds are passed on as bounds.

EC50 and inhibition data for 24 compounds are collected here from patent US12522606B2, “Modified pyrrolo- and pyrazolo-pyrimidines for prostate cancer therapy” (University of Washington, priority 2020, dated 2026).

One experiment concerns PC3. Kind of experiment: MTT proliferation assay, PC3. The settings on record: Homo sapiens; for EC50: read-out: EC50 PC3; for inhibition at 10 µM: PC-3, read-out: MTT % inhib @ 10 μM PC3. In general terms: Tetrazolium dyes change colour on reduction, which living cells bring about.
For another experiment, the system named is LNCaP95. Put plainly: MTT proliferation assay, LNCaP95. The class given is cell-based. The settings on record: Homo sapiens, LNCaP-95; for EC50: Table 1, LNCaP95 (AR+ PCa), unit inferred; for inhibition at 10 µM: read-out: MTT % inhib @ 10 μM LNCaP95. The protocol:
Anti-tumor activity was determined by screening a series of compounds against the castrate-resistant, androgen-receptor-positive, prostate cancer cell line LNCaP95. […] Inhibition of proliferation was determined based on the level of LNCaP95 cell growth suppression using an MTT assay (NAD(P)H-dependent cellular oxidoreductase enzymatic activities)) read at 72 and 96 hours after addition of the compounds. […] Each cell line was be tested in quadruplicate.

By EC50 is commonly meant the midpoint of the concentration-response curve. Consider `CCOc1ccc2cc(-c3cn(CC(C)(C)O)c4ncnc(NC(C)C)c34)ccc2c1` [Example 44, 1-(5-(6-ethoxynaphthalen-2-yl)-4-(isopropylamino)-7H-pyrrolo[2,3-d]pyrimidin-7-yl)-2-methylpropan-2-ol], for which the figures for the EC50 with PC3 and in the experiment on LNCaP95 were 20 µM and 5 µM, respectively.
On to `CNc1ncnc2c1c(-c1ccc(-c3ccccc3)cc1F)nn2CC(C)(C)O` [Example 20, 1-(3-(3-fluorobiphenyl-4-yl)-4-(methylamino)-1H-pyrazolo[3,4-d]pyrimidin-1-yl)-2-methylpropan-2-ol], for which, in the experiment with PC3, the inhibition at 10 µM came out at 8.3% and the EC50 is over 20 µM. In addition, in the experiment with LNCaP95, the EC50 is over 20 µM and the inhibition at 10 µM is 16.5%.
Consider `C#CCCC1(CCOC(=O)NCCNc2ncnc3c2c(-c2ccc4cc(OCC)ccc4c2)cn3CC(C)(C)O)N=N1` [Example 10, 2-(3-(but-3-ynyl)-3H-diazirin-3-yl)ethyl 2-(5-(6-ethoxynaphthalen-2-yl)-7-(2-hydroxy-2-methylpropyl)-7H-pyrrolo[2,3-d]pyrimidin-4-ylamino)ethylcarbamate], for which the results for the concentration for a half-maximal effect (EC50) in the experiment on PC3 and in the experiment with LNCaP95 were over 20 µM and 2 µM, respectively.
`CCOCCNc1ncnc2c1c(-c1ccc3cc(OC4CC4)ccc3c1)cn2CC(C)(C)O` [Example 35, 1-(5-(6-cyclopropoxynaphthalen-2-yl)-4-(2-ethoxyethylamino)-7H-pyrrolo[2,3-d]pyrimidin-7-yl)-2-methylpropan-2-ol]: the inhibition at 10 µM with PC3 was found to be 16.5%; with LNCaP95, 27.1%. Besides, the concentration giving a half-maximal response (EC50) with PC3 was over 20 µM; in the experiment on LNCaP95, 4 µM.
As for `CC(C)(O)Cn1cc(-c2ccc3cc(OC4CC4)ccc3c2)c2c(NCCN)ncnc21` [Example 24, 1-(4-(2-aminoethylamino)-5-(6-cyclopropoxynaphthalen-2-yl)-7H-pyrrolo[2,3-d]pyrimidin-7-yl)-2-methylpropan-2-ol], the inhibition at 10 µM with PC3 came out at 6.7%; with LNCaP95, 35.1%. Further, the EC50 with PC3 is over 20 µM; in the experiment on LNCaP95 it was over 10 µM.
As for `CNc1ncnc2c1c(-c1cccc(C(C)C)c1)nn2CC(C)(C)O` [Example 16, 1-(3-(3-isopropylphenyl)-4-(methylamino)-1H-pyrazolo[3,4-d]pyrimidin-1-yl)-2-methylpropan-2-ol], in the experiment on PC3, the inhibition at 10 µM was -10.5% and the EC50 is over 20 µM. In addition, in the experiment on LNCaP95, the EC50 is over 15 µM and the inhibition at 10 µM turned out to be 11.3%.
In the case of `CC(C)(O)Cn1cc(-c2ccc3cc(OC4CC4)ccc3c2)c2c(NCCOCCN)ncnc21` [Example 27, 1-(4-(2-(2-aminoethoxy)ethylamino)-5-(6-cyclopropoxynaphthalen-2-yl)-7H-pyrrolo[2,3-d]pyrimidin-7-yl)-2-methylpropan-2-ol], in the experiment with PC3, the inhibition at 10 µM is -5.2% and the EC50 was over 20 µM. Besides, in the experiment with LNCaP95, the EC50 is over 10 µM and the inhibition at 10 µM came out at 8.6%.
With `CC(C)(O)Cn1cc(-c2ccc(-c3ccccc3)cc2)c2c(NCCO)ncnc21` [Example 30, 1-(5-(biphenyl-4-yl)-4-(2-hydroxyethylamino)-7H-pyrrolo[2,3d]pyrimidin-7-yl)-2-methylpropan-2-ol], in the experiment on PC3, the inhibition at 10 µM was -18.1% and the EC50 was over 20 µM. Further, in the experiment on LNCaP95, the EC50 was found to be 4 µM and the inhibition at 10 µM is 37.8%.
Turning to `CC(C)(O)Cn1cc(-c2ccc3cc(OC4CC4)ccc3c2)c2c(NCCO)ncnc21` [Example 26, 1-(5-(6-cyclopropoxynaphthalen-2-yl)-4-(2-hydroxyethylamino)-7H-pyrrolo[2,3-d]pyrimidin-7-yl)-2-methylpropan-2-ol], the inhibition at 10 µM with PC3 came to 9.2%; in the experiment on LNCaP95 it was 40.6%. Further, the EC50 in the experiment with PC3 is over 20 µM; with LNCaP95, 5 µM.
For the compound `CCOCCNc1ncnc2c1c(-c1ccc(-c3ccc(CC)cc3)cc1)cn2CC(C)(C)O` [Example 39, 1-(4-(2-ethoxyethylamino)-5-(4′-ethylbiphenyl-4-yl)-7H-pyrrolo[2,3-d]pyrimidin-7-yl)-2-methylpropan-2-ol], in the experiment on PC3, the inhibition at 10 µM was 8.3% and the EC50 is over 20 µM. Further, in the experiment with LNCaP95, the EC50 is over 10 µM and the inhibition at 10 µM came to 29.2%.
`CNc1ncnc2c1c(-c1cccc(-c3ccccc3)c1)nn2CC(C)(C)O` [Example 19, 1-(3-(biphenyl-3-yl)-4-(methylamino)-1H-pyrazolo[3,4-d]pyrimidin-1-yl)-2-methylpropan-2-ol]: in the experiment with PC3, the inhibition at 10 µM is 4.4% and the EC50 was over 20 µM. In the experiment on LNCaP95, a half-maximal effect (EC50) was put at 5 µM and the inhibition at 10 µM amounted to 21.3%.
The matching figures for `CCOCCNc1ncnc2c1c(-c1ccc(-c3ccccc3)cc1)cn2CC(C)(C)O` [Example 37, 1-(5-(biphenyl-4-yl)-4-(2-ethoxyethylamino)-7H-pyrrolo[2,3-d]pyrimidin-7-yl)-2-methylpropan-2-ol]: 9%, over 20 µM, over 10 µM and 8.4%.
With `CCc1ccc(-c2ccc(-c3cn(CC(C)(C)OC)c4ncnc(NC)c34)cc2)cc1` [Example 34, 5-(4′-ethylbiphenyl-4-yl)-7-(2-methoxy-2-methylpropyl)-N-methyl-7H-pyrrolo[2,3-d]pyrimidin-4-amine], the inhibition at 10 µM in the experiment on PC3 came out at 9.1%; in the experiment with LNCaP95, 29.7%. Further, the values for the EC50 in the experiment on PC3 and in the experiment on LNCaP95 were over 20 µM and 6 µM, respectively.
For `CNc1ncnc2c1c(-c1cccc(C(C)C)c1)cn2CC(C)(C)OC` [Example 21, 5-(3-isopropylphenyl)-7-(2-methoxy-2-methylpropyl)-N-methyl-7H-pyrrolo[2,3-d]pyrimidin-4-amine], in that order: -5.4%, -2.7%, over 20 µM and 7 µM.
For `CCOCCNc1ncnc2c1c(-c1ccc(-c3ccc(OC)cc3)cc1)cn2CC(C)(C)O` [Example 38, 1-(4-(2-ethoxyethylamino)-5-(4′-methoxybiphenyl-4-yl)-7H-pyrrolo[2,3-d]pyrimidin-7-yl)-2-methylpropan-2-ol], in that order: 11.6%, 39.5%, over 20 µM and 4 µM.
The matching figures for `CCOCCNc1ncnc2c1c(-c1ccc(-c3ccc(Br)cc3)cc1)cn2CC(C)(C)O` [Example 40, 1-(5-(4′-bromobiphenyl-4-yl)-4-(2-ethoxyethylamino)-7H-pyrrolo[2,3-d]pyrimidin-7-yl)-2-methylpropan-2-ol]: 11.1%, -0.2%, over 20 µM and over 10 µM.
On to `CCOc1ccc2cc(-c3cn(CC(C)(C)O)c4ncnc(NCCO)c34)ccc2c1` [Example 25, 1-(5-(6-ethoxynaphthalen-2-yl)-4-(2-hydroxyethylamino)-7H-pyrrolo[2,3-d]pyrimidin-7-yl)-2-methylpropan-2-ol], for which, in the experiment with PC3, the inhibition at 10 µM is 10.3% and the EC50 is over 20 µM. In the experiment on LNCaP95, the EC50 is 5 µM and the inhibition at 10 µM is 34.6%.
As to `CC(C)(O)Cn1cc(-c2ccc3cc(OC4CC4)ccc3c2)c2c(NCCOCCNC(=O)OC3CC/C=C/CCC3)ncnc21` (stereo not drawn) [Example 29, trans-cyclooct-4-enyl 2-(2-(5-(6-cyclopropoxynaphthalen-2-yl)-7-(2-hydroxy-2-methylpropyl)-7H-pyrrolo[2,3-d]pyrimidin-4-ylamino)ethoxy)ethylcarbamate], in the experiment on PC3, the inhibition at 10 µM was -31% and the EC50 was over 20 µM. In the experiment on LNCaP95, it took 5 µM to reach a half-maximal effect (EC50) and the inhibition at 10 µM was 33.7%.
For the compound `COCCOc1ncnc2c1c(-c1ccc3ccccc3c1)cn2CC(C)(C)O` [Example 7, 1-(4-(2-methoxyethoxy)-5-(naphthalen-2-yl)-7H-pyrrolo[2,3-d]pyrimidin-7-yl)-2-methylpropan-2-ol], the figures for the inhibition at 10 µM with PC3 and in the experiment with LNCaP95 were -36.2% and 23.9%, respectively. The EC50 in the experiment on PC3 was over 20 µM; in the experiment with LNCaP95 it was 12 µM.
For `COc1ccc2cc(-c3cn(CC(C)(C)O)c4ncnc(NC(C)C)c34)ccc2c1` [Example 45, 1-(4-(isopropylamino)-5-(6-methoxynaphthalen-2-yl)-7H-pyrrolo[2,3-d]pyrimidin-7-yl)-2-methylpropan-2-ol], the results for the EC50 in the experiment with PC3 and in the experiment with LNCaP95 were over 20 µM and 5 µM, respectively.
In the case of `CC(C)Nc1ncnc2c1c(-c1ccc3cc(OC4CC4)ccc3c1)cn2CC(C)(C)O` [Example 43, 1-(5-(6-cyclopropoxynaphthalen-2-yl)-4-(isopropylamino)-7H-pyrrolo[2,3-d]pyrimidin-7-yl)-2-methylpropan-2-ol], the EC50 stood at 20 µM in the experiment on PC3 and 10 µM in the experiment with LNCaP95.
On to `CC(C)(O)Cn1cc(-c2ccc3cc(OC4CC4)ccc3c2)c2c(NC3CC3)ncnc21` [Example 17, 1-(5-(6-cyclopropoxynaphthalen-2-yl)-4-(cyclopropylamino)-7H-pyrrolo[2,3-d]pyrimidin-7-yl)-2-methylpropan-2-ol], for which the EC50 worked out at 10 µM in the experiment with PC3 and 2.5 µM with LNCaP95.
Take `COc1ccc2cc(-c3cn(CC(C)(C)O)c4ncnc(NC5CC5)c34)ccc2c1` [Example 42, 1-(4-(cyclopropylamino)-5-(6-methoxynaphthalen-2-yl)-7H-pyrrolo[2,3-d]pyrimidin-7-yl)-2-methylpropan-2-ol]: the values for the EC50 in the experiment on PC3 and in the experiment with LNCaP95 were over 20 µM and 20 µM, respectively.
As for `CCOCCNc1ncnc2c1c(-c1ccc3cc(OC(C)C)ccc3c1)cn2CC(C)(C)O` [Example 36, 1-(4-(2-ethoxyethylamino)-5-(6-isopropoxynaphthalen-2-yl)-7H-pyrrolo[2,3-d]pyrimidin-7-yl)-2-methylpropan-2-ol], in the experiment on PC3, the inhibition at 10 µM stood at 15.7% and the EC50 was over 20 µM. Also, in the experiment on LNCaP95, the EC50 was found to be 8 µM and the inhibition at 10 µM came to 22%.
